Experimental data from ChEMBL document CHEMBL1128664, “FPL 64176: The effect of the chain length separating the two aryl groups on calcium agonist activity” (Bioorg Med Chem Lett, 1995).
Activity calls are given as the source filed them. The rule behind the calls is not given here.

Legend:
[1] = tested on: GH3; test: Effect on K+ stimulated [Ca2+] influx in GH3 cells at 10e-7 concentration; assay type: functional, Rattus norvegicus
[2] = tested on: GH3; test: Effect on K+ stimulated [Ca2+] influx in GH3 cells at 10e-5 concentration; assay type: functional, Rattus norvegicus
[3] = tested on: GH3; test: Maximal stimulation of Ca 2+ uptake was determined; assay type: functional, Rattus norvegicus
[4] = tested on: GH3; test: Effect on K+ stimulated [Ca2+] influx in GH3 cells at 10e-6 concentration; assay type: functional, Rattus norvegicus
[5] = tested on: GH3; test: Effect on K+ stimulated [Ca2+] influx in GH3 cells at 10e-8 concentration; assay type: functional, Rattus norvegicus
[6] = tested on: GH3; test: Concentration required for enhancing calcium influx into GH 3 cells was determined; assay type: functional, cell-based; settings: Rattus norvegicus
[7] = tested on: GH3; test: Concentration required for 84% enhancing calcium influx intoGH 3 cells was determined; assay type: functional, cell-based; settings: Rattus norvegicus
[8] = tested on: GH3; test: Maximal stimulation of Ca 2+ uptake was determined; no significant effect; assay type: functional, cell-based; settings: Rattus norvegicus

Row | SMILES | EC50 [6] [nM] | EC50 [7] [nM] | Increase [1] [%] | Increase [2] [%] | Stimulation [3] [%] | Increase [4] [%] | Increase [5] [%] | Stimulation [8]
1 | COC(=O)c1c(C)[nH]c(C)c1C(=O)c1ccccc1Cc1ccccc1 | 140 |  | 140 | 280 | 298 | 240 | 20 | 
2 | COC(=O)c1c(C)[nH]c(C)c1C(=O)c1ccccc1-c1ccccc1 |  |  | -8 | 0 |  | -8 | 0 | inactive
3 | COC(=O)c1c(C)[nH]c(C)c1C(=O)c1ccccc1CCc1ccccc1 | 207 |  | 120 | 350 | 420 | 340 | 0 | 

Second part, led by results:

Row | EC50 [6] [nM] | EC50 [7] [nM] | SMILES | Increase [1] [%] | Increase [2] [%] | Stimulation [3] [%] | Increase [4] [%] | Increase [5] [%] | Stimulation [8]
4 | 614 |  | COC(=O)c1c(C)[nH]c(C)c1C(=O)c1ccccc1CCCc1ccccc1 | 0 | 220 | 265 | 160 | -8 | 
5 |  | 10000 | COC(=O)c1c(C)[nH]c(C)c1C(=O)c1ccccc1CCCCc1ccccc1 | 20 | 20 |  | 80 | 0 | inactive
